Reference: paper PMC9292215 (Clinical Pharmacology and Therapeutics, 2021)
Marks after values point to notes of the source that are not given here.

Tests used:
[1] = Plasma pharmacokinetics of BIA 10-2474 and metabolites; type: in vivo, human; details: for Cmax / half-life / Tmax / AUC(0-inf) / concentration at 10 day / AUC(0-t) / AUC / clearance: human, plasma, oral; for AUC(0-t): AUC0–t; for AUC: AUC0–τ; for clearance: CL
[2] = Phase I SAD/FI/MAD study: adverse events; type: in vivo, human
[3] = 10 mg, 10 mg once daily, Day 10
[4] = 20 mg, 20 mg once daily, Day 10
[5] = MAD 50 mg, moderate, serious, participant with fatal outcome

SMILES: CN(C(=O)n1cnc(-c2ccc[n+]([O-])c2)c1)C1CCCCC1 [BIA 10-2474, 3-(1-(cyclohexyl(methyl)carbamoyl)-1H-imidazol-4-yl)pyridine 1-oxide]
- Cmax ([1]; 5 mg, 5 mg once daily, Day 1): 76.2 ng/mL
- Cmax ([1]; 5 mg, 5 mg once daily, Day 10): 85.7 ng/mL
- half-life ([1]; 5 mg, t1/2, 5 mg once daily, Day 1): 384 min
- half-life ([1]; 5 mg, t1/2, 5 mg once daily, Day 10): 472 min
- half-life ([1]; 5 mg, t1/2, single dose 5 mg): 394 min
- Tmax ([1]; 5 mg, 5 mg once daily, Day 1): 2 h
- Tmax ([1]; 5 mg, 5 mg once daily, Day 10): 2 h
- AUC(0-inf) ([1]; 10 mg): 1610 ng·h/mL
- concentration at 10 day ([1]; 10 mg): 31.9 ng/mL
- AUC(0-t) ([1]; 10 mg, 10 mg once daily, Day 1): 1390 ng·h/mL
- AUC(0-t) ([1]; 10 mg, single dose 10 mg): 1440 ng·h/mL
- AUC ([1]; 10 mg, 10 mg once daily, Day 1): 1390 ng·h/mL
- AUC [1, 3]: 2200 ng·h/mL
- clearance ([1]; 10 mg, 10 mg once daily, Day 1): 116 mL/min
- clearance [1, 3]: 80.3 mL/min
- clearance ([1]; 10 mg, single dose 10 mg): 112 mL/min
- Cmax ([1]; 10 mg, 10 mg once daily, Day 1): 143 ng/mL
- Cmax [1, 3]: 190 ng/mL
- Cmax ([1]; 10 mg, single dose 10 mg): 146 ng/mL
- half-life ([1]; 10 mg, t1/2, 10 mg once daily, Day 1): 427 min
- half-life ([1]; 10 mg, t1/2, 10 mg once daily, Day 10): 545 min
- half-life ([1]; 10 mg, t1/2, single dose 10 mg): 421 min
- Tmax ([1]; 10 mg, 10 mg once daily, Day 1): 2 h
- Tmax [1, 3]: 2 h
- Tmax ([1]; 10 mg, single dose 10 mg): 3 h
- AUC(0-inf) ([1]; 20 mg): 4170 ng·h/mL
- concentration at 10 day ([1]; 20 mg): 69.2 ng/mL
- AUC(0-t) ([1]; 20 mg, 20 mg once daily, Day 1): 2980 ng·h/mL
- AUC(0-t) ([1]; 20 mg, single dose 20 mg): 4070 ng·h/mL
- AUC ([1]; 20 mg, 20 mg once daily, Day 1): 2980 ng·h/mL
- AUC [1, 4]: 4650 ng·h/mL
- clearance ([1]; 20 mg, 20 mg once daily, Day 1): 100 mL/min
- clearance [1, 4]: 72.2 mL/min
- clearance ([1]; 20 mg, single dose 20 mg): 81.2 mL/min
- Cmax ([1]; 20 mg, 20 mg once daily, Day 1): 290 ng/mL
- Cmax [1, 4]: 396 ng/mL
- Cmax ([1]; 20 mg, single dose 20 mg): 308 ng/mL
- half-life ([1]; 20 mg, t1/2, 20 mg once daily, Day 1): 464 min
- half-life ([1]; 20 mg, t1/2, 20 mg once daily, Day 10): 612 min
- half-life ([1]; 20 mg, t1/2, single dose 20 mg): 522 min
- Tmax ([1]; 20 mg, 20 mg once daily, Day 1): 1.5 h
- Tmax [1, 4]: 2 h
- Tmax ([1]; 20 mg, single dose 20 mg): 2 h
- AUC(0-t) ([1]; 50 mg, 50 mg once daily, Day 1): 7770 ng·h/mL
- AUC ([1]; 50 mg, 50 mg once daily, Day 1): 7770 ng·h/mL
- clearance ([1]; 50 mg, 50 mg once daily, Day 1): 94.7 mL/min
- Cmax ([1]; 50 mg, 50 mg once daily, Day 1): 667 ng/mL
- half-life ([1]; 50 mg, t1/2, 50 mg once daily, Day 1): 520 min
- Tmax ([1]; 50 mg, 50 mg once daily, Day 1): 2 h
- time to steady state ([1]; once-daily administration, visual inspection of Ctrough): 5 to 6 days
- V/F ([1]; single dose 1.25 mg): 87.8 (30.4) L
- V/F ([1]; single dose 2.5 mg): 79.0 (29.0) L
- V/F ([1]; single dose 5 mg): 64.6 (23.0) L
- V/F ([1]; single dose 10 mg): 66.9 (29.8) L
- V/F ([1]; single dose 20 mg): 61.3 (19.0) L
- V/F ([1]; single dose 40 mg): 73.2 (28.3) L
- V/F ([1]; single dose 100 mg): 57.0 (16.3) L
- decrease of exposure in the presence of food ([1]; single oral 40 mg): ~ 15%
- Any AE, n (%) ([2]; 2.5 mg once daily 10 days, N = 6): 1 (16.7%)
- Any AE, n (%) ([2]; 5 mg once daily 10 days, N = 6): 1 (16.7%)
- Any AE, n (%) ([2]; 10 mg once daily 10 days, N = 6): 3 (50%)
- duration of blurred vision ([2]; 10 mg/day, mild): < 2.5 h
- participants with blurred vision ([2]; 10 mg/day, two participants): 2.3%
- Any AE, n (%) ([2]; 20 mg once daily 10 days, N = 6): 4 (66.7%)
- Abdominal pain, No. events ([2]; MAD 50 mg): 1
- Asthenia, No. events ([2]; MAD 50 mg): 1
- Blurred vision, No. events ([2]; MAD 50 mg): 1
- Diarrhea, No. events ([2]; MAD 50 mg): 2
- Dizziness, No. events ([2]; MAD 50 mg): 2
- Nausea, No. events ([2]; MAD 50 mg): 1
- Headache, No. events ([2]; MAD 50 mg, 3 moderate): 2 + 3^#
- Hot Flush, No. events ([2]; MAD 50 mg, moderate): 1^#
- Soft feces, No. events ([2]; MAD 50 mg, moderate): 1^#
- Diplopia, No. events ([2]; MAD 50 mg, moderate, serious): 1^#§
- Transient global amnesia, No. events ([2]; MAD 50 mg, moderate, serious): 1^#§
- Dysarthria, No. events [2, 5]: 1^#§&
- Feeling drunk, No. events [2, 5]: 1^#§&
- Vitreous floaters, No. events ([2]; MAD 50 mg, serious): 1^§*
- Hemiparesis, No. events ([2]; MAD 50 mg, severe, serious): 1^£§
- Nervous system disorder, No. events ([2]; MAD 50 mg, severe, serious, hospitalization): 1^£§H
- participants reporting treatment-emergent adverse effects ([2]; any dose of BIA 10-2474, 15 participants): 17.9%
- participants with CNS (serious) adverse events ([2]; repeated 50 mg (up to day 5), one with fatal outcome): five of six
- participants with headache ([2]; single 40 mg, 10 and 20 mg/day for 10 days, three participants): 3.6%
- Any AE, n (%) ([2]; single dose 0.25 mg, N = 6): 0
- Any AE, n (%) ([2]; single dose 1.25 mg, N = 6): 0
- Any AE, n (%) ([2]; single dose 2.5 mg, N = 6): 1 (16.7%)
- Any AE, n (%) ([2]; single dose 5 mg, N = 6): 0
- Any AE, n (%) ([2]; single dose 10 mg, N = 6): 1 (16.7%)
- Any AE, n (%) ([2]; single dose 20 mg, N = 6): 0
- Any AE, n (%) ([2]; single dose 40 mg (SAD and FI combined), N = 18): 5 (27.8%)
- Any AE, n (%) ([2]; single dose 100 mg, N = 6): 1 (16.7%)
- tolerability ([2]; up to 100 mg single dose and up to 20 mg once daily for 10 days): well tolerated
